Key:
[1] = test system: isolated rabbit thoracic aorta preparations; experiment: Assay on vascular tone: vasorelaxation in isolated aortic rings precontracted with noradrenaline; type: cell-based; conditions: for EC50: Oryctolagus cuniculus, read-out: EC50 (μM) ± sem
Procedure: The ability of the compounds of the invention to induce vasorelaxation in comparison to precursor compounds, was tested in vitro in isolated rabbit thoracic aorta preparations (Wanstall J. C. et al., Br. J. Pharmacol., 134:463-472, 2001). Male New Zealand rabbits were anaesthetized with thiopental-Na (50 mg/kg, iv), sacrificed by exsanguinations and then the thorax was opened and the aorta dissected. Aortic ring preparations (4 mm in length) were set up in physiological salt solution (PSS) at 37° C. in small organ chambers (5 ml). The composition of PSS was (mM): NaCl 130, NaHCO3 14.9, KH2PO4 1.2, MgSO4 1.2, HEPES 10, […] (95% O2/5% CO2; pH 7.4). Each ring was mounted under 2 g passive tension. Isometric tension was recorded with a Grass transducer (Grass FT03) attached to a BIOPAC MP150 System. Preparations were allowed to equilibrate for 1 h, and then contracted submaximally with noradrenaline (NA, 1 μM) and, when the contraction was stable, acetylcholine (ACh, 10 μM) was added. A relaxant response to ACh indicated the presence of a functional endothelium. […] When a stable precontraction was reached, a cumulative concentration-response curve to either of the vasorelaxant agents was obtained in the presence of a functional endothelium. Each arterial ring was exposed to only one combination of inhibitor and vasorelaxant. Moreover, the effect of the soluble guanylyl cyclase inhibitor ODQ (1-H-(1,2,4)-oxadiazol(4,3-a)quinoxalin-1-one) on vasorelaxation elicited by the compounds was examined preincubating the aortic rings with ODQ (10 μM) for 20 min.
Responses to relaxing agents are expressed as a percentage of residual contraction and plotted against concentration of test compound. EC50 values (where EC50 is the concentration producing 50% of the maximum relaxation to the test compound) were interpolated from these plots. During the experimental period, the plateau obtained with NA was stable without significant spontaneous loss of contraction in the aortic rings.
Furthermore, in experiments performed in the presence of ODQ (10 μM), the vasorelaxant responses to tested compounds were inhibited.

[2] = test system: Human Embryonic Kidney (HEK293) cell; experiment: cGMP accumulation assay; type: cell-based; conditions: intracellular cGMP, HEK293 cells, 30 min, with L-NAME, IBMX 100 μM and BAY 41-2272 1 μM
Procedure: The ability of the compounds of the invention to increase intracellular cGMP in comparison to vehicle was tested in vitro in Human Embryonic Kidney (HEK293) cell preparations. The method followed was as that reported in literature with minor modifications (Ongini et al., PNAS 2004; 101(22):8497-502. Ronchetti et al., Eur J. Pharmacol. 2006; 532(1-2):162-9).
Briefly, HEK293 cells were washed once with Hank's Balance Salt Solution (HESS) supplemented with HEPES (10 mM), MgCl2 (5 mM) and 0.05% ascorbic acid. Then they were pre-incubated for 20 min with a nitric oxide synthase inhibitor, N-nitro-L-arginine methyl ester (L-NAME) (300 μM) so to lower endogenous NO production. The cells were then exposed for 30 min to either vehicle (DMSO 1%) or increasing concentrations of test compounds (up to 100 μM) in presence of the phosphodiesterase inhibitor, 3-isobutyl-1-methylxanthine (IBMX, 100 μM) and the NO-independent activator/modulator of soluble guanylyl-cyclase, BAY 41-2272 (1 μM). The reaction was ended by the removal of the incubating buffer and the addition of 50 μl/well of 100% ice-cold ethanol. The plate was then dried under hot air steam and the cell residues dissolved, extracted and analysed using commercially available cyclic GMP enzyme immunoassay kit (Cayman Chemical, Ann Arbor, Mich., U.S.A.). Data obtained with the compounds of the present invention, expressed as % of vehicle at their respective maximal concentration (100 μM), are reported in Table 2.

[3] = test system: conscious spontaneously hypertensive rats (SHRs); experiment: Assay for antihypertensive activity (in vivo), telemetry; set-up: species or system rat; conditions: for Δ SBP in SHR (mmHg) 2-6 hrs / Δ SBP in SHR (mmHg) 21-24 hrs / Δ SBP in SHR (mmHg) 25-48 hrs / Δ SBP in SHR (mmHg) 12 hrs: delta versus own baseline
Procedure: Assay for Antihypertensive Activity (In Vivo)
The ability of the compounds of the invention to decrease blood pressure was evaluated in conscious spontaneously hypertensive rats (SHRs). SHRs (250-300 g) received a single oral dose of tested compounds. Systolic blood pressure (SBP) and heart rate were monitored by telemetry for […] after dosing. SBP was evaluated before (baseline) and at different time points (i.e. 2-6, 12, 21-24, 25-48 hours) following treatment by oral administration of the compounds. The data were processed both as the absolute value or as a delta between the absolute value and its own baseline.
The Dataquest IV telemetry system (Data Sciences International) was used for measurement of systolic pressure, diastolic pressure, mean arterial pressure, heart rate, and motor activity. The monitoring system consists of a transmitter (radio frequency transducer model TA11PA), receiver panel, consolidation matrix, and personal computer with accompanying software. Before the device was implanted, calibrations were verified to be accurate within ±3 mmHg. Rats were anesthetized with ketamine/xylazine/acepromazine, and the flexible catheter of the transmitter was surgically secured in the abdominal aorta just below the renal arteries. The transmitter was sutured subcutaneously. Rats were housed in individual cages after the operation. Each cage was placed over the receiver panel that was connected to the personal computer for data acquisition. The rats were unrestrained and free to move within their cages. Hemodynamic data were sampled every 2 minutes for 10 seconds.

[4] = vasorelaxation of rabbit aortic rings precontracted with noradrenaline 1 μM, functional endothelium

Row | Structure (SMILES) | EC50 [1, 4] | % of vehicle (mean ± sem at 100 μM) [2] | also measured
1 | O=C(CCCCCO[N+](=O)[O-])O[C@@H]1CO[C@H]2[C@@H]1OC[C@H]2O [Example 3, (3R,3aR,6R,6aR)-6-hydroxyhexahydrofuro[3,2-b]furan-3-yl 6-(nitrooxy)hexanoate] | 2.5 ± 0.6 µM | 677.83 ± 79.6 % of vehicle | 
2 | O=C(CCOCC(CO[N+](=O)[O-])O[N+](=O)[O-])O[C@@H]1CO[C@H]2[C@@H]1OC[C@H]2O (stereo partly drawn) [Example 13, (3R,3aR,6R,6aR)-6-hydroxyhexahydrofuro[3,2-b]furan-3-yl 3-(2,3-bis(nitrooxy)propoxy)propanoate] | 0.1 ± 0.03 µM | 683 ± 86.3 % of vehicle | 
3 | O=C(O[C@@H]1CO[C@H]2[C@@H]1OC[C@H]2O)N1CCC(O[N+](=O)[O-])CC1 [Example 7, (3R,3aR,6R,6aR)-6-hydroxyhexahydrofuro[3,2-b]furan-3-yl 4-(nitrooxy)piperidine-1-carboxylate] | 4.4 ± 1.9 µM |  | 
4 | O=C(CCC[C@H](CO[N+](=O)[O-])O[N+](=O)[O-])O[C@@H]1CO[C@H]2[C@@H]1OC[C@H]2O [Example 5, (R)-((3R,3aR,6R,6aR)-6-hydroxyhexahydrofuro[3,2-b]furan-3-yl) 5,6-bis(nitrooxy)hexanoate] |  | 668 ± 64.7 % of vehicle | 
5 | O=C(CCCCCO[N+](=O)[O-])O[C@@H]1CO[C@H]2[C@@H]1OC[C@H]2OC(=O)CCCCCO[N+](=O)[O-] [Example 2, (3R,3aR,6R,6aR)-hexahydrofuro[3,2-b]furan-3,6-diyl bis(6-(nitrooxy)hexanoate)] | 3.1 ± 0.9 µM | 1082.67 ± 163.4 % of vehicle | 
6 | O=[N+]([O-])OCC(CCCCO[C@@H]1CO[C@H]2[C@@H]1OC[C@H]2O)O[N+](=O)[O-] (stereo partly drawn) [Example 6, 6-((3R,3aR,6R,6aR)-6-hydroxyhexahydrofuro[3,2-b]furan-3-yloxy)hexane-1,2-diyl dinitrate] | 0.91 ± 0.33 µM | 1620 ± 205.0 % of vehicle | 
7 | CC(C)(CCOC(=O)O[C@@H]1CO[C@H]2[C@@H]1OC[C@H]2O)CC(CO[N+](=O)[O-])O[N+](=O)[O-] (stereo partly drawn) [Example 8, 3,3-dimethyl-5,6-bis(nitrooxy)hexyl (3R,3aR,6R,6aR)-6-hydroxyhexahydrofuro[3,2-b]furan-3-yl carbonate] | 0.06 ± 0.01 µM | 564 ± 59.0 % of vehicle | 
8 | O[C@@H]1CO[C@H]2[C@@H]1OC[C@H]2O [Isomannide, 1,4:3,6-dianhydro-D-mannitol, reference compound] |  |  | relaxation (concentration-response curve) ([1]; rabbit aortic rings precontracted with noradrenaline, result in words): does not produce relaxation at any of the concentration tested; EC50 (μM) ± sem [1, 4]: no effect; Δ SBP in SHR (mmHg) 2-6 hrs ([3]; single oral dose 2.4 mpk): −3 mmHg; Δ SBP in SHR (mmHg) 21-24 hrs ([3]; single oral dose 2.4 mpk): −6 mmHg; Δ SBP in SHR (mmHg) 25-48 hrs ([3]; single oral dose 2.4 mpk): −6 mmHg; Δ SBP in SHR (mmHg) 12 hrs ([3]; single oral dose 2.4 mpk): −9 mmHg
9 | O=C(CCC[C@@H](CO[N+](=O)[O-])O[N+](=O)[O-])O[C@@H]1CO[C@H]2[C@@H]1OC[C@H]2O [Example 4] | 0.11 ± 0.02 µM | 986.3 ± 90.0^ % of vehicle | 
10 | O=C(CCCC(CO[N+](=O)[O-])O[N+](=O)[O-])O[C@@H]1CO[C@H]2[C@@H]1OC[C@H]2O (stereo partly drawn) [Example 1, (3R,3aR,6R,6aR)-6-hydroxyhexahydrofuro[3,2-b]furan-3-yl 5,6-bis(nitrooxy)hexanoate] | 0.11 ± 0.03 µM | 1029.6 ± 80.2 % of vehicle | BP lowering compared to precursor compound (isomannide) ([3]; SHR, single oral dose, result in words): BP lowering with extended peak effect and duration of action; Δ SBP in SHR (mmHg) 2-6 hrs ([3]; single oral dose 4.4 mpk): −13 mmHg; Δ SBP in SHR (mmHg) 21-24 hrs ([3]; single oral dose 4.4 mpk): −20 mmHg; Δ SBP in SHR (mmHg) 25-48 hrs ([3]; single oral dose 4.4 mpk): −16 mmHg; Δ SBP in SHR (mmHg) 12 hrs ([3]; single oral dose 4.4 mpk): −16 mmHg

— patent US8003811B2, “Nitric oxide donor compounds” (Nicox S.A., priority 2008, dated 2011)
